The source made the active and inactive calls.
Legend:
[1] = biological target: NAD-dependent protein deacylase sirtuin-5, mitochondrial (Homo sapiens, UniProt Q9NXA8); assay: sirtuin-5 deacylation blockers, concentration series – biochemical, fluorescence imaging, cherry-pick, set 5, dose response (AID 720591);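 further: desuccinylation of succinyl peptide AMC substrate read as fluorescence after trypsin release; potency of inhibitors that lower fluorescence and may act on trypsin instead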
[2] = tested on: Streptococcus sp. 'group A'; assay: Streptococcus pyogenes SK(-)GAS viability under kanamycin – luminescence, BacTiterGlo, confirmation, counter-screen for streptokinase expression inhibitor project, dose response (AID 1900); assay type: functional, organism-based
Streptokinase A = biological target: T1, Streptokinase A (Streptococcus pyogenes serotype M1, UniProt P10520); assay: viability-normalized secreted streptokinase activity reduction – plasminogen activation absorbance, OD405, dose response (AID 1914); assay type: functional, Streptococcus pyogenes M1 GAS;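 further: secreted streptokinase activity via plasminogen activation per viability signal from cell pellet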
T1 sequence (P10520 whole entry): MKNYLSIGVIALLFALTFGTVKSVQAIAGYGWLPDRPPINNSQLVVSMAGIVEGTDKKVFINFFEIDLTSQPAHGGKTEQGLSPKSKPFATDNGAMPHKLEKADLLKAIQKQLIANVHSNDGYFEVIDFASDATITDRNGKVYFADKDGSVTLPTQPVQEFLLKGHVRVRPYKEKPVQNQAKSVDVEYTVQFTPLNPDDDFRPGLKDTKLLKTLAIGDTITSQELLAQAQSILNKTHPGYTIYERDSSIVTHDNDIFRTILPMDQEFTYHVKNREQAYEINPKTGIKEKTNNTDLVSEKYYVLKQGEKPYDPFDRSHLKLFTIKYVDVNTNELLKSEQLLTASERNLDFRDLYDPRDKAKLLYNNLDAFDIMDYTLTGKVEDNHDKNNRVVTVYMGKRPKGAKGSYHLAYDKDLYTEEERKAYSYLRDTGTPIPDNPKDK

[3] = Trypanosoma cruzi growth suppression in host cells – NIH3T3 host cells, beta-gal luminescence, confirmation (AID 2044); assay type: functional, cell-based;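 further: intracellular parasites grown in NIH/3T3 mouse fibroblasts as host cells; luminescent beta-galactosidase reporter signal from transgenic T. cruzi replicating inside host cells; inhibitors lower the luminescence signal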
[4] = NIH3T3 cell viability loss – ATP luminescence, mouse fibroblasts, counter-screen, dose response (AID 2010); assay type: functional, cell-based;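 further: cells exposed to compound for about 90 hours before reading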
Streptococcus = assay: GAS UMAA2166 growth inhibition – luminescence, BacTiterGlo, counter-screen for streptokinase expression inhibitor project, dose response (AID 1915); assay type: functional, organism-based;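 further: potency for reduction of bacterial viability or growth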
[5] = biological target: Disintegrin and metalloproteinase domain-containing protein 17 (Homo sapiens, UniProt P78536); assay: inhibition of ADAM17 substrate cleavage – biochemical, quenched FRET substrate, counter-screen for ADAM10 exosite inhibitor project, dose response (AID 743253)
Kallikrein-7 = Kallikrein-7 (Homo sapiens, UniProt P49862); assay: Fluorescence Intensity-based biochemical primary high throughput dose response assay to identify activators of kallikrein-7 (K7) zymogen.
[6] = liver cell line viability loss – HepG2, luminescence plate reader, powder samples, set 2, cytotoxicity control, dose response (AID 651860); assay type: functional, cell-based
[7] = Late stage counterscreen for inhibitors of Trypanosoma brucei methionyl tRNA synthetase (MetRS): Luminescence-based cell-based high throughput dose response assay to identify compounds that are cytotoxic to Jurkat human T lymphocyte cells.; assay type: functional
[8] = inhibitors acting on PAX2 in cells – cell-based, plate reader, dry powder samples, selectivity assay for PAX8 inhibitor project, dose response (AID 743048); assay type: functional;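 further: HEK293 cells carrying a WT1 promoter luciferase reporter driven by expressed Pax2; potency is for inhibition of Pax2 driven reporter signal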
[9] = COV362 cell viability loss – plate reader, dry powder, SA12, cytotoxicity control for PAX8 inhibitor project, dose response (AID 743144); assay type: functional, cell-based
[10] = A2780 cell killing – plate reader, dry powder samples, cytotoxicity control, dose response (AID 743046); assay type: functional, cell-based
[11] = OVCAR-3 cell viability loss – plate reader, dry powder samples, PAX8 inhibitor project, dose response (AID 743044); assay type: functional, cell-based
[12] = PAX5 cellular inhibition readout – cell-based, plate reader, dry powder samples, selectivity assay for PAX8 inhibitor project, dose response (AID 743047); assay type: functional;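 further: HEK293 cells carrying a Pax5 driven CD19 promoter luciferase reporter; potency of inhibitors that lower reporter luminescence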
[13] = COV434 cell viability loss – plate reader, dry powder, SA7, cytotoxicity control for PAX8 inhibitor project, dose response (AID 743145); assay type: functional, cell-based
[14] = OV-90 cell viability loss – plate reader, dry powder, SA8, PAX8 inhibitor project, dose response (AID 743149); assay type: functional, cell-based
[15] = PAX8-dependent cell viability loss – plate reader, dry powder, dose response (AID 743049); assay type: functional, cell-based
Paired box protein Pax-8 = Paired box protein Pax-8 (Homo sapiens, UniProt Q06710); assay: PAX8 transcriptional activity inhibition in RMG-I – RMG-I cells, luciferase, cherry-pick, dose response (AID 687027); assay type: functional, cell-based;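 further: luciferase reporter driven by Pax8 target thyroperoxidase promoter measured by SteadyGlo luminescence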
[16] = toxicity toward immortalized ovarian surface epithelium – cell-based, plate reader, dry powder samples, cytotoxicity control for PAX8 inhibitor project, dose response (AID 743045); assay type: functional
[17] = general cell-killing toxicity readout – plate reader, dry powder samples, cytotoxicity control for PAX8 inhibitor project, dose response (AID 743021); assay type: functional, cell-based
[18] = OVCAR8 cell viability loss – plate reader, dry powder samples, PAX8 project, dose response (AID 743197); assay type: functional, cell-based; settings: OVCAR-8

Sequence of Disintegrin and metalloproteinase domain-containing protein 17 (P78536 whole entry, the tested form may be a part): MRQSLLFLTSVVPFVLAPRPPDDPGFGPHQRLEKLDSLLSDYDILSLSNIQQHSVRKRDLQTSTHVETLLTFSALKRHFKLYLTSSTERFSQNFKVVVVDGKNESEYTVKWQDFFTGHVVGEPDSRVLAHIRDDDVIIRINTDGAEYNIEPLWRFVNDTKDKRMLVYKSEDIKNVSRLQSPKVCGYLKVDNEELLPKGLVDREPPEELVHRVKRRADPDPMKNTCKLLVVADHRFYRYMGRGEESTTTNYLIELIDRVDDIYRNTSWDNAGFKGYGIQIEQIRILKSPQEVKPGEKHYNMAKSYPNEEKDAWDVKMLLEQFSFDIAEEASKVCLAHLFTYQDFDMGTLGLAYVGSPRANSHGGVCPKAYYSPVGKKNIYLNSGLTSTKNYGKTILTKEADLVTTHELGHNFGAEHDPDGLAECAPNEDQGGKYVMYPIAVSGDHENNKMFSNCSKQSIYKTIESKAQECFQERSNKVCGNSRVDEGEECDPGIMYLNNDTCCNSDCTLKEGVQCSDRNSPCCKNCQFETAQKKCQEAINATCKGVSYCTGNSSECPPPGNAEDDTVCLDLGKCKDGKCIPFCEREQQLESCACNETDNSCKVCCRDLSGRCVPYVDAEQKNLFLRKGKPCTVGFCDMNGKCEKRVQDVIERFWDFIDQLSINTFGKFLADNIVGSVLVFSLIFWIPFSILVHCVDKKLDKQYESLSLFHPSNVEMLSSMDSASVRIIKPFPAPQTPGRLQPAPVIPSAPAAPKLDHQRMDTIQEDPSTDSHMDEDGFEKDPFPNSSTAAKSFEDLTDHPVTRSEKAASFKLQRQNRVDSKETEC
Sequence of Kallikrein-7 (P49862 whole entry): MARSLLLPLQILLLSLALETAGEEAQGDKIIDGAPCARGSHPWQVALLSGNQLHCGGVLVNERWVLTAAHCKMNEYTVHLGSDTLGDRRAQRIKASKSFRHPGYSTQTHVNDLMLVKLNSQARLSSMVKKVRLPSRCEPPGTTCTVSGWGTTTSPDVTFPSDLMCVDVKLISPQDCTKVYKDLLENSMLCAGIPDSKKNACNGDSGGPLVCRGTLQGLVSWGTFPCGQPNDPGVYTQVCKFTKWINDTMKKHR
Sequence of Paired box protein Pax-8 (Q06710 whole entry): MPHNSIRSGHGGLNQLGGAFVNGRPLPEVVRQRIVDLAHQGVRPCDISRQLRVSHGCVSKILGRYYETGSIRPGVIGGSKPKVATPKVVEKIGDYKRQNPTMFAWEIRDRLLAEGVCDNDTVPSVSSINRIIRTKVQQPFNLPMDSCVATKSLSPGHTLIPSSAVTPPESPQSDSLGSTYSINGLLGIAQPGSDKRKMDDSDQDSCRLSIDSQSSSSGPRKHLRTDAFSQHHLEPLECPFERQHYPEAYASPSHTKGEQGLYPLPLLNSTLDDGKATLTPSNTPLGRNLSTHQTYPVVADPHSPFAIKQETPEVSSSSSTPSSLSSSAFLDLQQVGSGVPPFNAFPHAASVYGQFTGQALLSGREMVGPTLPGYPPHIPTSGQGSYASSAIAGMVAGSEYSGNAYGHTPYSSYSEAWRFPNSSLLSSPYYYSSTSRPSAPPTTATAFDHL
Sequence of NAD-dependent protein deacylase sirtuin-5, mitochondrial (Q9NXA8 whole entry): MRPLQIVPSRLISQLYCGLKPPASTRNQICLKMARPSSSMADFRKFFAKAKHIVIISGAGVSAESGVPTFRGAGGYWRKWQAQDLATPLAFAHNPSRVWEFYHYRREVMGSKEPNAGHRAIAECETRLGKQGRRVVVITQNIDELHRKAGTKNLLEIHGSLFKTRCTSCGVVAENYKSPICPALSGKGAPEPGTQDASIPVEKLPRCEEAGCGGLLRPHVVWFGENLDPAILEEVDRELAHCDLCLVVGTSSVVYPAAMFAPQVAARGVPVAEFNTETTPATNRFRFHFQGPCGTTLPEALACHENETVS

For `CCOC(=O)C1=CCN(S(=O)(=O)c2ccc(C)cc2)C1c1cccc(Br)c1` (centres undefined), the AC50 [1] was > 30 µM (inactive).

With `COc1ccc(C(Nc2cc(C)ccn2)c2ccc3ccc(C)nc3c2O)cc1` (centres undefined) the EC50 [2] was 14.3 µM (active), the EC50 (Streptokinase A) was > 150 µM (not active) and the EC50 [3] was 2.15 µM (active). The EC50 [4] was 24.7 µM (active), the EC50 (Streptococcus) was 54.9 µM (active) and the IC50 [5] was > 69.5 µM (inactive).

In the case of `Cc1oc2c(CN3CCCCC3)c(O)ccc2c(=O)c1-c1ccc(Br)cc1`, the EC50 (Kallikrein-7) is reported as 9.73 µM (active).

With `Cc1cc(C)c(S(=O)(=O)Nc2nc(C(C(=O)OC(C)C)C(=O)C(F)(F)F)nc3ccccc23)c(C)c1` (centres undefined) the AC50 [6] was > 52 µM (inactive).

For `O=C(NCc1nc2ccccc2[nH]1)C1=C[C@H](c2csc3ccccc23)C[C@H](OCCCCO)O1`, the IC50 [7] was 60.3 µM (inactive).

For `O=C(N1CCCCC1)[C@@]1(CCS(=O)(=O)c2ccccc2)N=C(c2ccc(OCCCO)cc2)O[C@H]1c1ccccc1`, the AC50 [8] was 49.5 µM (active), the AC50 [9] was > 100 µM (inactive) and the AC50 [10] was 32.1 µM (active). For the same molecule, the AC50 [11] was 64.6 µM (active), the AC50 [12] was 41.9 µM (active) and the AC50 [13] was > 100 µM (inactive). The AC50 [14] was > 100 µM (inactive) and the AC50 [15] was 87.1 µM (active).

For `COc1ccc(NC(=O)N2CCCCN3[C@@H](CO)[C@@H](c4ccc(C#Cc5ccccc5)cc4)[C@@H]3C2)cc1`, the AC50 (Paired box protein Pax-8) was 14.9 µM (active), the AC50 [16] was 37.1 µM (active) and the AC50 [10] was 22.2 µM (active). For the same molecule, the AC50 [11] was 23.3 µM (active), the AC50 [17] was 42.1 µM (active) and the AC50 [18] was 40.1 µM (active).

— ChEMBL document CHEMBL1201862, “PubChem BioAssay data set” (2004)
